Laboratory results from patent publication US5612453A, “Selected peptides of the group-specific antigen (gag) of human immunodeficiency virus (HIV), the preparation and use thereof” (Chiron Behring GmbH & Co., priority 1990, dated 1997).

Assays:
Format in all cases: cell-based
[1] = system: HIV-1 virus strain HTLV-IIIB; assay: p24 detection by Western blot in HIV-infected cells after gag peptide treatment; details: two weeks after infection, Western blot with anti-p24 MAbs
Procedure: (§1) Cells. Permanently growing T lymphocytes (Jurkat or H9 cells) were used for the in vitro experiments. The medium used was conventional RPMI 1640 with 10% FCS, 2% NaHCO3 (5% strength), 1% penicillin/streptavidin solution and 2 mg/l Polybrene. The experiments were carried out either in 96-well microtiter plates (Nunc) or in 24-well plates (Nunc).
(§2) Viruses. HIV-1 virus strain HTLV-IIIB and HIV-2 strain ROD were used.
In the first experiment, 50 μl of 1×10^6 jurkat cells/ml were pipetted into each well of 96-well plates, and each was infected with 50 μl (1000 TCID50) HTLV-IIIB. The gag peptide concentration was adjusted to 200 μg/ml or 40 μg/ml. After one week, 100 μl of supernatant were removed and any cells still present were removed by centrifugation. Then 80 μl of supernatant were placed on an uninfected jurkat cell culture. Viral antigen was detected in the infected cells by immunolabeling after a Western blot. For this, the cells remaining after the inhibition experiment were taken up in 2×SDS-PAGE sample buffer and fractionated in a 14% PAG. The fractionated proteins were then blotted onto a nitrocellulose membrane and incubated with an anti-p24 HIV-1 monoclonal antibody to detect viral proteins. […] Infectious HIV in the supernatant of the peptide-treated cells was analyzed by the reverse transcriptase assay. […]

HIV-2 strain ROD = assay: Inhibition of HIV-2 synthesis: reverse transcriptase activity in detector cell culture supernatant (Experiment 3); details: Experiment 3 (FIG. 3); 100 TCID50 HIV-2, H9 cells
Procedure: as §1, §2
(§3) Reverse transcriptase assay. The microassay for detecting viral reverse transcriptase was carried out by the method of Gregersen et al. (Gregersen et al. (1988) Detection of human immunodeficiency virus and other retroviruses in cell culture supernatants by a reverse transcriptase microassay. J. Virol. Methods 19, 161-168). Cell culture supernatants were concentrated five-fold by PEG precipitation. Positive controls (VC) were supernatants of untreated infected cell cultures, and negative controls (NC) were cell culture supernatants from uninfected cells. The value measured for the NC was doubled and used as value for excluding negative cells.
H9 cells were infected with 100 TCID50 HIV-2 for this experiment. […]
100 TCID50 HIV-1 and HIV-2 were employed to infect the jurkat and H9 cells respectively. Reverse transcriptase activity measured in cpm in the cell culture supernatant from the detector cell culture. […]

[2] = system: HIV-1 virus strain HTLV-IIIB; assay: Inhibition of HIV-1 synthesis: infectious virus / reverse transcriptase activity in detector cell culture supernatant; details: for inhibitory effect on HIV-1 synthesis (reverse transcriptase activity of detector culture supernatant): Experiment 3 (FIG. 3), 100 TCID50 HIV-1, jurkat cells, detector cultures incubated two weeks; for inhibitory effect on HIV-1 synthesis: Experiments 1 and 2, jurkat cells, 1000 or 100 TCID50 HTLV-IIIB, peptide 200 or 40 μg/ml
Procedure: These peptides were added in various concentrations (200-40 μg/ml) to freshly infected jurkat cells. Infection was carried out with 100-1000 TCID50. The infection was analyzed by microscopic assessment and investigation of the supernatant for the content of infectious HIV. For this purpose, the cell supernatant was added to non-infected jurkat cells. After incubation for two weeks, this detector cell culture was examined for HIV under the microscope and by reverse transcriptase assay.
Permanently growing T lymphocytes (Jurkat or H9 cells) were used for the in vitro experiments. The medium used was conventional RPMI 1640 with 10% FCS, 2% NaHCO3 (5% strength), 1% penicillin/streptavidin solution and 2 mg/l Polybrene. The experiments were carried out either in 96-well microtiter plates (Nunc) or in 24-well plates (Nunc).
HIV-1 virus strain HTLV-IIIB and HIV-2 strain ROD were used.
as §3
In the first experiment, 50 μl of 1×10^6 jurkat cells/ml were pipetted into each well of 96-well plates, and each was infected with 50 μl (1000 TCID50) HTLV-IIIB. The gag peptide concentration was adjusted to 200 μg/ml or 40 μg/ml. After one week, 100 μl of supernatant were removed and any cells still present were removed by centrifugation. Then 80 μl of supernatant were placed on an uninfected jurkat cell culture. […] Infectious HIV in the supernatant of the peptide-treated cells was analyzed by the reverse transcriptase assay.
1000 TCID50 HIV-1 were employed for infecting the jurkat cells. Reverse transcriptase activity measured in cpm in the cell culture supernatant from the detector cell culture. The supernatant was concentrated five-fold by PEG precipitation. VC=virus control; NC=negative control. Twice the NC value was used to exclude negative cell cultures. To improve clarity, the RT values are reported in the figure in logarithmic presentation.
100 TCID50 HIV-1 were employed to infect the jurkat cells. Reverse transcriptase activity measured in cpm in the cell culture supernatant from the detector cell culture. The supernatant was concentrated five-fold by PEG precipitation. VC=virus control; NC=negative control.

NPGLLETSEGCROILGQLQPSLQT [Peptide 5]
p24 Detection [1]: (+)
inhibition of HIV-2 synthesis (reverse transcriptase activity of detector culture supernatant) (HIV-2 strain ROD): very clearly evident
inhibitory effect on HIV-1 synthesis (reverse transcriptase activity of detector culture supernatant) [2]: strong inhibitory effect
inhibitory effect on HIV-1 synthesis [2]: exerted an inhibitory effect on HIV-1 synthesis

WASRELERFAVNPGLLETSEGCRQ [Peptide 4, synthetic gag peptide from the p17 submembrane protein]
p24 Detection [1]: -
inhibition of HIV-2 synthesis (reverse transcriptase activity of detector culture supernatant) (HIV-2 strain ROD): very clearly evident
inhibitory effect on HIV-1 synthesis (reverse transcriptase activity of detector culture supernatant) [2]: strong inhibitory effect
inhibitory effect on HIV-1 synthesis [2]: exerted an inhibitory effect on HIV-1 synthesis
